IC50 data for 17 molecules are collected here from US12528784B2, “Alkynyl-(heteroaryl)-carboxamide HCN1 inhibitors” (Hoffmann-La Roche Inc., priority 2019, dated 2026).

Bounds are passed on as bounds.

One test deals with T1, HCN4 (Homo sapiens, UniProt Q9Y3Q4).
T1 construct: expressed in transfected cells
T1 sequence (Q9Y3Q4 1-1203): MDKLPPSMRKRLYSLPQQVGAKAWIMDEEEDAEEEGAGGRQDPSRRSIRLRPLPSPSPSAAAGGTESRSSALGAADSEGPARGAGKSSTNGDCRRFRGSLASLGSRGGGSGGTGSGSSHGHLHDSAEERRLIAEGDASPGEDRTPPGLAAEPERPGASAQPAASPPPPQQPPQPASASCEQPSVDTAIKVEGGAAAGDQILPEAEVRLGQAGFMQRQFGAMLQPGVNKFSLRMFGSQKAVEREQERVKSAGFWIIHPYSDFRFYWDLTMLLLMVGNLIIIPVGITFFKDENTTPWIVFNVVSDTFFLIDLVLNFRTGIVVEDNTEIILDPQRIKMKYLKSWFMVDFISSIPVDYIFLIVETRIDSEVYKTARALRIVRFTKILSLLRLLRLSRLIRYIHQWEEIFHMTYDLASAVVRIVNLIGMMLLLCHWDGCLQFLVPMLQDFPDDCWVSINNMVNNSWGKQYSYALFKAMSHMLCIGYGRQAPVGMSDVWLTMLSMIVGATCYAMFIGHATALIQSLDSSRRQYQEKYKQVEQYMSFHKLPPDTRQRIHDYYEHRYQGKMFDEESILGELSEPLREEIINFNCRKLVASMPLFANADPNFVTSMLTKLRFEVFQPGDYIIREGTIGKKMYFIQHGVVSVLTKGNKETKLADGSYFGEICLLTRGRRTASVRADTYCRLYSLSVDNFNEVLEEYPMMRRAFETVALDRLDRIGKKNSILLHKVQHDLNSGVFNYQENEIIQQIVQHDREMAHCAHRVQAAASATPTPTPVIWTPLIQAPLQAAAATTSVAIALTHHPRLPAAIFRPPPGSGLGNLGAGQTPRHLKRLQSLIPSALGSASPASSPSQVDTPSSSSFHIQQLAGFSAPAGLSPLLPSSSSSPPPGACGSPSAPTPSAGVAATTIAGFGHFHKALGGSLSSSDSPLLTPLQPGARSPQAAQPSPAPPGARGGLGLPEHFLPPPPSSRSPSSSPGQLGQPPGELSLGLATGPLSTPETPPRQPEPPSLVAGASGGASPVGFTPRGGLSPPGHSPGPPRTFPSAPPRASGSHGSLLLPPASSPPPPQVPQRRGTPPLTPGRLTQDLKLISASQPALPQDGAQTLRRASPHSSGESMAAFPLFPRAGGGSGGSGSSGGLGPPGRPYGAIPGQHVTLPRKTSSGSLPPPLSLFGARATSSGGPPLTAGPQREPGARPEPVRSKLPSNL
Nature of the test: HCN4 automated patch clamp current inhibition assay (Ionworks Barracuda). The format is cell-based. As to conditions: HEK-293 cells stably expressing HCN4; current inhibition during a hyperpolarizing pulse of -100 mV.

The target in the next test is T2, HCN2 (Homo sapiens, UniProt Q9UL51).
T2 construct: expressed in transfected cells
T2 sequence (Q9UL51 1-889): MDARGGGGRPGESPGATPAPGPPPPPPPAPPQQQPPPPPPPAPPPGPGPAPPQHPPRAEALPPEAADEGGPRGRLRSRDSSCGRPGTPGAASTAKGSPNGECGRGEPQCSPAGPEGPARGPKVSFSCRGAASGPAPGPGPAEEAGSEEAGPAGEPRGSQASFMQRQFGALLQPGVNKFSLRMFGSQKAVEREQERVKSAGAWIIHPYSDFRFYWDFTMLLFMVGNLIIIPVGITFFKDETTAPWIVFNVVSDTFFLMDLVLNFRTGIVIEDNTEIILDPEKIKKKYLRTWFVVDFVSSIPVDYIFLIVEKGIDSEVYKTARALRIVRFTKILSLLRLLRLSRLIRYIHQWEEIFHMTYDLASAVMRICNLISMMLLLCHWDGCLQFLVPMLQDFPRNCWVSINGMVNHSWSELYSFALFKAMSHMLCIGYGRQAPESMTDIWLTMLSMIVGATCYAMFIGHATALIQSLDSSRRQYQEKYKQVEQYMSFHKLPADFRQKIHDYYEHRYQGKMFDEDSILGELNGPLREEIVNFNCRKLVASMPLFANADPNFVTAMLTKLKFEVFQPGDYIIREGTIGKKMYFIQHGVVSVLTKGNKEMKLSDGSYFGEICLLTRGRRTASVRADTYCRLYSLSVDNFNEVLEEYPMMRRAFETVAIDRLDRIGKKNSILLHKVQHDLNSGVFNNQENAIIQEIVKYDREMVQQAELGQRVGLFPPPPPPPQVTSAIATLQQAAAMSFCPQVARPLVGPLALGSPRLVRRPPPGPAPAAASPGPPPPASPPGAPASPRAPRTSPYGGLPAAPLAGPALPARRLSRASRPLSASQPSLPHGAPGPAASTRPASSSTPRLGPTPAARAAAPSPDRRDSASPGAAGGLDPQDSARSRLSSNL
The experiment in a line: HCN2 automated patch clamp current inhibition assay (Ionworks Barracuda). The format is cell-based. The note with it: HEK-293 cells stably expressing HCN2; current inhibition during a hyperpolarizing pulse of -100 mV. The procedure: In vitro, high-throughput cellular electrophysiology was employed to detect voltage- and use-dependence of compounds in single concentration screening and IC50 determination for library and medicinal chemistry profiling compounds in 384 well plates.
Cell cultures were maintained in DMEM/F12 cell growth media containing FBS and appropriate antibiotics at 37° C., 5% CO2 for a maximum of 20 passages. At a time point of 40-72 hours prior to assay, the expression of HCN protein in the cells is induced by addition of tetracyclin. Cells may be incubated at 27° C. for 2-24 hours of induction. […] Cells were harvested at 80% confluency and resuspended in extracellular buffer and added to wells. A freshly prepared Escin solution was added to intracellular buffer and applied to establish whole cell recording via perforated patch clampling by APC.
Currents through activated channels were measured directly by APC by employing hyperpolarizing voltage steps. The activation window was increased and stabilized by the addition of cell permeable Br-cAMP. Baselines were established for both use- and voltage-dependence protocols using a −30 mV holding potential and multiple test pulses at −100 mV or by 20 mV steps from −120 to 0 mV, respectively. Test compounds were added after baseline recordings followed by a 10 min incubation, voltage-dependency protocol recording, and use-dependency recording. Data was corrected for baseline and rundown (well based) and normalized for % inhibition (plate based). Five previously reported HCN inhibitors of varying potencies and selectivities and zatebradine were used for run to run and plate to plate quality controls. […] Percent inhibition was analysed at −80, −100, −120 mV of the voltage-dependency protocol and at pulse 0 and 50 of the use-dependency protocols. Selectivity was assessed against HCN2, HCN3, and HCN4 overexpressing cell lines using similar methods. As HCN4 has a slower activation than the other HCN channels, activation was extended to achieve steady state activation.
For orientation: In patch-clamp work, channel activity is measured electrically.

In the case of `Cc1ccc(-n2c(C(N)=O)nc(C#Cc3ccnc(Cl)c3C)c2C)cn1` [Example 1, 4-((2-Chloro-3-methylpyridin-4-yl)ethynyl)-5-methyl-1-(6-methylpyridin-3-yl)-1H-imidazole-2-carboxamide], the IC50 on HCN4 and on HCN2 was above 40 µM each time.

In the case of `Cc1ccc(-n2c(C(N)=O)nc(C#Cc3ccnc(Cl)c3F)c2C)cn1` [Example 2, 4-((2-Chloro-3-fluoropyridin-4-yl)ethynyl)-5-methyl-1-(6-methylpyridin-3-yl)-1H-imidazole-2-carboxamide], the IC50 against HCN4 and against HCN2 was above 40 µM each time.

Regarding `Cc1ccc(-n2c(C(N)=O)nc(C#Cc3csc(Cl)c3)c2C)cn1` [Example 3, 4-[2-(5-Chlorothiophen-3-yl)ethynyl]-5-methyl-1-(6-methylpyridin-3-yl)imidazole-2-carboxamide], the IC50 against HCN4 and against HCN2 was above 40 µM in each case.

As for `Cc1ccc(-n2c(C(N)=O)nc(C#Cc3cccc(Cl)c3)c2C)cn1` [Example 4, 4-[2-(3-Chlorophenyl)ethynyl]-5-methyl-1-(6-methyl-3-pyridyl)imidazole-2-carboxamide], the results for the IC50 at HCN4 and against HCN2 were above 40 µM and 30.6 µM, respectively.

`Cc1ccc(-n2c(C(N)=O)nc(C#Cc3cccc(C#N)c3)c2C)cn1` [Example 5, 4-((3-Cyanophenyl)ethynyl)-5-methyl-1-(6-methylpyridin-3-yl)-1H-imidazole-2-carboxamide]: the half-inhibitory concentration (IC50) at HCN4 and on HCN2 was above 40 µM each time.

With `Cc1ccc(-n2c(C(N)=O)nc(C#Cc3ccnc(Cl)c3)c2C)cn1` [Example 6, 4-(2-Chloro-pyridin-4-ylethynyl)-5-methyl-1-(6-methyl-pyridin-3-yl)-1H-imidazole-2-carboxylic Acid Amide], the IC50 against HCN4 and against HCN2 was above 40 µM in each case.

Regarding `COc1cccc(C#Cc2nc(C(N)=O)n(-c3ccc(C)nc3)c2C)c1` [Example 8, 4-((3-Methoxyphenyl)ethynyl)-5-methyl-1-(6-methylpyridin-3-yl)-1H-imidazole-2-carboxamide], the half-maximal inhibitory concentration (IC50) at HCN4 and against HCN2 was above 40 µM in each case.

For the molecule `Cc1cccc(C#Cc2nc(C(N)=O)n(-c3ccc(C)nc3)c2C)c1` [Example 10, 5-Methyl-1-(6-methylpyridin-3-yl)-4-(m-tolylethynyl)-1H-imidazole-2-carboxamide], the IC50 against HCN4 and on HCN2 was above 40 µM in each case.

`Cc1cnc(-n2c(C(N)=O)nc(C#Cc3ccnc(Cl)c3C)c2C)cn1` [Example 23, 4-[2-(2-Chloro-3-methyl-4-pyridyl)ethynyl]-5-methyl-1-(5-methylpyrazin-2-yl)imidazole-2-carboxamide]: the 50% inhibitory concentration (IC50) against HCN4 and against HCN2 was above 40 µM in each case.

For `Cc1c(C#Cc2nc(C(N)=O)n(-c3ccc(Cl)nc3)c2C)ccnc1Cl` [Example 26, 4-[2-(2-Chloro-3-methyl-4-pyridyl)ethynyl]-1-(6-chloro-3-pyridyl)-5-methyl-imidazole-2-carboxamide], the IC50 on HCN4 and on HCN2 was above 40 µM throughout.

Turning to `COc1ccc(-n2c(C(N)=O)nc(C#Cc3ccnc(Cl)c3C)c2C)cn1` [Example 27, 4-[2-(2-Chloro-3-methyl-4-pyridyl)ethynyl]-1-(6-methoxy-3-pyridyl)-5-methyl-imidazole-2-carboxamide], the IC50 at HCN4 and at HCN2 was above 40 µM throughout.

For `Cc1ccc(-n2c(C(N)=O)nc(C#Cc3ccnc(Cl)c3C)c2C)nc1` [Example 28, 4-[2-(2-Chloro-3-methyl-4-pyridyl)ethynyl]-5-methyl-1-(5-methyl-2-pyridyl)imidazole-2-carboxamide], the half-inhibitory concentration (IC50) against HCN4 and against HCN2 was above 40 µM in each case.

Take `Cc1ccc(-n2c(C(N)=O)cc(C#Cc3ccnc(Cl)c3)c2C)cn1` [Example 31, 4-[2-(2-Chloro-4-pyridyl)ethynyl]-5-methyl-1-(6-methyl-3-pyridyl)pyrrole-2-carboxamide]: the half-inhibitory concentration (IC50) on HCN4 and at HCN2 was above 40 µM in each case.

As to `Cc1ccc(-c2c(C(N)=O)nc(C#Cc3ccnc(Cl)c3)n2C)cn1` [Example 32, 2-[2-(2-Chloro-4-pyridyl)ethynyl]-1-methyl-5-(6-methyl-3-pyridyl)imidazole-4-carboxamide], the 50% inhibitory concentration (IC50) against HCN4 and at HCN2 was above 40 µM throughout.

Turning to `Cc1ccc(-n2c(C(N)=O)nc(C#Cc3ccnc(Cl)c3)c2C)cc1` [Example 38, 4-[2-(2-Chloro-4-pyridyl)ethynyl]-5-methyl-1-(p-tolyl)imidazole-2-carboxamide], the concentration for half-maximal inhibition (IC50) on HCN4 and against HCN2 was above 40 µM each time.

Consider `Cc1c(C#Cc2ccnc(Cl)c2)nc(C(N)=O)n1-c1ccc(Cl)cc1` [Example 39, 1-(4-Chlorophenyl)-4-((2-chloropyridin-4-yl)ethynyl)-5-methyl-1H-imidazole-2-carboxamide], for which the IC50 at HCN4 and on HCN2 was above 40 µM throughout.

For `NC(=O)c1nc(C#Cc2ccnc(Cl)c2)cn1-c1ccc(F)cc1` [Example 42, 4-(2-Chloro-pyridin-4-ylethynyl)-1-(4-fluoro-phenyl)-1H-imidazole-2-carboxylic Acid Amide], the IC50 against HCN4 and against HCN2 was above 40 µM throughout.

A word on the IC50: it is the concentration that gives 50% inhibition. Read a low IC50 as inhibition by little substance.
